Where two headings read alike, the source gives them in different places.
Key:
advanced solid tumors = test: Phase 1b study of BA in combination with chemotherapy, clinical response via RECIST; format: in vivo, human; conditions: number of subjects; chemotherapy in combination with BA
Method: The protocol has been amended to evaluate BA in combination with chemotherapy in specific tumor types.
BA plus cytotoxic chemotherapy (CTX)
BA Dosing: • Twice weekly; i.v. infusion • Standard 3+3 design for BA dose escalation • Dose levels studied: 2.0, 2.8, 4.0, 5.6, 8.0, and up to 11.2 mg/kg
Clinical response via RECIST every 2 cycles
Subjects— 18 years old with a refractory, advanced solid tumor, ECOG PS of <=2, and adequate hematological, renal, and hepatic function
No restriction on number of prior chemotherapeutic regimens

[1] = tested on: carcinosarcoma of the uterus; conditions: single agent; cited from earlier work
endometrial carcinoma = conditions: cited from earlier work
[2] = tested on: advanced or recurrent endometrial cancer; conditions: single agent; cited from earlier work
[3] = tested on: persistent or recurrent nonsquamous cell carcinoma of the cervix; conditions: cited from earlier work
[4] = tested on: carcinosarcoma of the uterus; conditions: cited from earlier work
[5] = tested on: carcinosarcoma of the uterus; conditions: cited from earlier work; remark: listed apart in the source
[6] = tested on: panel of 63 other kinases, including native c-Abl; conditions: cited from earlier work
[7] = tested on: cells not expressing Bcr-Abl; conditions: cited from earlier work
[8] = tested on: advanced endometrial cancer; conditions: of 29 patients enrolled; preliminary data analysis; cited from earlier work

In the case of `Cn1nnc2c(C(N)=O)ncn2c1=O` [Temozolomide, temozolomide], the “CR + PR” value (advanced solid tumors) is reported as 1.

In the case of `COc1cccc2c1C(=O)c1c(O)c3c(c(O)c1C2=O)C[C@@](O)(C(=O)CO)C[C@@H]3O[C@H]1C[C@H](N)[C@H](O)[C@H](C)O1` [doxorubicin], the response rate [1] is given as 9.8%, the “response rate (RR)” value (endometrial carcinoma; doxorubicin 60 mg/m^2, cisplatin 50 mg/m^2, p=0.004) is given as 25% and the PFS (endometrial carcinoma; in vivo) is given as 3.8 months. The OS (endometrial carcinoma; no difference observed) was 9 months.

For `CC(=O)O[C@H]1C(=O)[C@@]2(C)[C@H]([C@H](OC(=O)c3ccccc3)[C@]3(O)C[C@H](OC(=O)[C@H](O)[C@@H](NC(=O)c4ccccc4)c4ccccc4)C(C)=C1C3(C)C)[C@]1(OC(C)=O)CO[C@@H]1C[C@@H]2O` [paclitaxel], the response rate [1] is given as 18.2% and the response rate [2] is given as 36%.

In the case of `CC/C(=C(\c1ccccc1)c1ccc(OCCN(C)C)cc1)c1ccccc1` [tamoxifen], the complete responses ([3]; 27 evaluable for response) is given as “one”, the partial responses ([3]; 27 evaluable for response) is given as “two” and the “grades 3 and 4 adverse effects reported” value ([3]; 32 patients evaluable for adverse effects) is given as “six”. For the same compound, the “antitumor activity, conclusion” value ([3]; in vivo) was “minimal activity” and the objective response rate ([3]; tamoxifen citrate 10 mg orally twice a day, 27 evaluable for response) was 11.1%.

In the case of `O=P1(NCCCl)OCCCN1CCCl` (centres unmarked) [ifosfamide], the response rate [1] is listed as 32.2%, the median progression-free survival ([4]; p=0.03) is listed as 3.6 months and the median survival ([4]; p=0.03) is listed as 8.4 months. For the same compound, the response rate ([4]; second randomized trial) was 29%, the toxicity ([4]; use of ifosfamide) was “significant toxicity” and the median progression-free survival ([5]; p=0.02) was 4 months. For the same compound, the median survival ([5]; p=0.07) was 7.6 months and the response rate ([5]; randomized phase III trial) was 36%.

In the case of `COc1cc([C@@H]2c3cc4c(cc3[C@@H](O[C@@H]3O[C@@H]5CO[C@@H](C)O[C@H]5[C@H](O)[C@H]3O)[C@H]3COC(=O)[C@H]23)OCO4)cc(OC)c1O` [etoposide], the response rate [1] is listed as 6.5%.

For `NC(=O)c1cccc(-c2cc(Nc3ccc(OC(F)(F)F)cc3)ncn2)c1` [GNF-2], the “inhibition of a panel of 63 other kinases” value [6] is listed as “does not inhibit” and the “toxicity towards cells not expressing Bcr-Abl” value [7] is listed as “complete lack of toxicity”.

In the case of `N.N.[Cl][Pt][Cl]` [cisplatin], the response rate [1] is listed as 18%.

In the case of `CC[C@@]1(O)C(=O)OCc2c1cc1n(c2=O)Cc2cc3c(CN(C)C)c(O)ccc3nc2-1` [topotecan], the response rate [1] is given as 10% and the “CR + PR” value (advanced solid tumors) is given as 1.

For `Nc1ccn(C2OC(CO)C(O)C2(F)F)c(=O)n1` (centres unmarked) [Gemcitabine, 4-amino-1-[3,3-difluoro-4-hydroxy-5-(hydroxymethyl)tetrahydrofuran-2-yl]-1H-pyrimidin-2-one], the “CR + PR” value (advanced solid tumors) was 3.

For `COc1cc2ncnc(Nc3ccc(F)c(Cl)c3)c2cc1OCCCN1CCOCC1` [ZD1839, gefitinib], the “patients with complete response” value [8] is listed as 1 patient and the “patients with stable disease at 6 months” value [8] is listed as “several”.

From US20090123419A1, “TREATMENT OF UTERINE CANCER AND OVARIAN CANCER WITH A PARP INHIBITOR ALONE OR IN COMBINATION WITH ANTI-TUMOR AGENTS” (BiPar Sciences, priority 2007, published 2009)
